# Experimental data reported in patent US11648233B2, “Heripenes with pain-relieving effect, active substances of Hericium erinaceus mycelium and the preparation method thereof, and pharmaceutical composition containing the heripenes or active substances” (GRAPE KING BIO LTD., priority 2015, dated 2023).
# Tested on: P2R (P2-purinoceptor) in human osteosarcoma HOS cells
# Test: Inhibition of ATP-induced P2R calcium signals (Fura-2 fluorescence) in HOS cells
# Type: cell-based
# Conditions: erinacine S 5, 10 and 15 μg/ml (FIG. 7B)
# Experimental: Cells were filled with a fluorescent dye-based calcium indicator, “Fura-2, AM cell permeant” (ThermoFisher Scientific, Waltham, Mass., U.S.A.), and the variation of the fluorescence level at an emission wavelength of 505 nm was determined at two excitation wavelengths of 340 nm and 380 nm using a fluorescence spectrometer (SPEX® 1681, Spec Industries, Inc., New Jersey, U.S.A.). During the experiment, ATP was added to cells to stimulate the P2R expression, and the variation of the fluorescence level was observed. Finally, 1 wt. % digitonin was added to enable the cells to become transparent, and the maximum fluorescence ratio (Rmax) was obtained at a concentration of 2 mM Ca^2+. Ethyleneglycol bis(2-aminoethylether)tetraacetic acid (EGTA) then was added to chelate with the calcium ions to obtain a minimum fluorescence ratio (Rmin). The dissociation coefficient (Kd) of fura-2 to Ca^2+ is 225 nM. The intracellular calcium-ion concentration was calculated using formulas (Grynkiewicz et al., J. Biol. Chem. 1985. 260(6):3440-3450). […]
# Comparing the P2R-correlated calcium signals in three cell lines stimulated with ATP, the variation of the calcium-ion concentration in human osteosarcoma HOS cells was the most significant, and thus the influence of the agent on P2R can clearly be determined. […]
compound,measurement,value
CC(C)C1=C2C3CCC4=C(O)C(=O)C5(O)COC6OC(C4C65O)C3(C)CCC2(C)CC1 (stereo not shown) [erinacine S],inhibition effect on the variation of the intracellular calcium-ion concentration induced by ATP,more significant in a dosage-dependent manner
